Laboratory results published in patent publication US4637997A, “Hexapeptide, process for obtaining II and the pharmaceutical compositions containing II” (Institut National de la Sante et de la Recherche Medicale, priority 1984, dated 1987).
Peptide text beside a SMILES is read from it.

Test system: Klebsiella pneumoniae
Experiment: experimental infection with Klebsiella pneumoniae in the mouse
Type: in vivo
Conditions: i.v.

## CC[C@H](C)[C@H](NC(=O)[C@@H]1CCCN1C(=O)[C@H](CCC(=O)O)NC(=O)[C@@H](N)C(C)C)C(=O)N1CCC[C@H]1C(=O)N[C@@H](Cc1ccc(O)cc1)C(=O)O [hexapeptide of formula (I), Val-Glu-Pro-Ile-Pro-Tyr] (H-VEPIPY-OH)
  dose from which remarkable activity against experimental infection is exhibited: ≥ 0.05 mg/kg
